# Patent US20080227846A1, “METHODS OF TREATING JUVENILE TYPE 1 DIABETES MELLITUS” (MUSC Foundation for Research Development, priority 2007, published 2008)
# “And” between values parts separate entries of the source, which are not always exact repeats. Identical values can stand only once.
# How the values were obtained:
# NOD mice [1] = test: Atorvastatin calcium and AICAR, individually and in combination, blood glucose in NOD mice; assay type: in vivo, mouse; details: FIG. 8
# iNOS and TNF-α protein = test: Western blot of pancreas tissue; assay type: in vivo, mouse; details: vs saline-treated diabetic mice
# [2] = system: juvenile patients newly diagnosed with T1DM; test: Statin treatment of juvenile patients newly diagnosed with T1DM, C-peptide; assay type: in vivo, human; details: patient
# Experimental: Two juvenile patients newly diagnosed with T1DM were treated with a statin in order to evaluate whether the diabetic condition in the juvenile patient can be stabilized or reversed by statin treatment. A human patient who was positive for insulin antibodies was identified as having new onset T1DM. […] The patient was treated with 10 mg/day for the first two weeks after diagnosis, and 20 mg/day thereafter.
# A human patient who was positive for insulin antibodies was identified as having new onset T1DM. The patient began treatment with 20 mg/day atorvastatin calcium (Lipitor®) at the time (the day of) diagnosis of T1DM. […] Normally, within 12 months after diagnosis a child would have been expected to drop from 100% of the insulin the patient started with to 14.0%±7% (s.d.) of the insulin the child started with.
# [3] = Palomer et al., Diabetologia 48:1671-1673 (2005); cited from earlier work
# [4] = system: macrophages (ED1) and granulocytes (GR) infiltrated into the pancreatic islets; test: Immunohistopathology staining of pancreas for infiltration of macrophages and granulocytes; details: for entry of inflammatory cells into pancreatic tissue: animals of Example 1
# [5] = system: iNOS, TNF-α, and IFN-γ mRNA; test: Quantitative real-time PCR of pancreas, pro-inflammatory cytokines and iNOS; assay type: in vivo, mouse; details: FIG. 9, vs saline-treated mice
# NOD mice [6] = test: Prevention of diabetes in NOD mice, daily oral atorvastatin calcium or AICAR; assay type: in vivo, mouse; details: for NOD mice without diabetes compared to saline: FIG. 6, atorvastatin p<0.004, AICAR 10 mg/kg body weight per day orally p<0.001
# From the text: The non-obese diabetic (NOD) mouse model is the best-studied animal model of autoimmune diabetes. […] Spontaneous diabetes occurs in female NOD mice and is preceded by insulitis, a lymphocytic infiltration of the pancreatic islets, which is the major histologic event occurring by 5-8 weeks in the NOD mouse (Chatenoud et al., Proc. Natl. Acad. Sci. 91:123-127, 1994).
# In these experiments, 4-week old female NOD mice were obtained from Jackson Laboratories (JAX strain no 001976; NOD/LtJ strain) and maintained in a sterile environment. Drug treatment began at 4-weeks of age, prior to inflammatory disease onset. Under normal conditions, diabetes begins appearing in NOD mice by 12-weeks in untreated animals, with 90-100% of the mice developing the disease by 30-weeks.
# The animals were divided into three groups of 23 animals each. Group 1 was the control and received vehicle only by oral lavage of physiological saline daily. Groups 2 and 3 received atorvastatin calcium (Lipitor®) at a dose of 5 or 10 mg/kg body weight daily, respectively. Blood glucose (BG) was measured in each animal three-times per week. […] Also, two non-diabetic animals from each group were sacrificed on days 50, 70, and 80 for histological and cytokine analyses (not included in FIG. 1).
# In addition to statins, AICAR was also administered to NOD mice at 10 mg/kg body weight per day orally.
# new-onset T1DM patients = details: cited from earlier work
# NOD mice [7] = test: Simvastatin plus insulin, blood glucose in NOD mice; assay type: in vivo, mouse
# Experimental: In another experiment, simvastatin was administered to NOD mice, and the animals were supplemented with insulin in an attempt to keep the animals from developing diabetic ketoacidosis. The study was designed to examine whether simvastatin at 2 mg/kg/day and 5 mg/kg/day protected islet cells from damage during early phases of diabetes. […]. The animals were divided into four groups randomly. Group 1 was the control and received oral lavage of physiological saline daily, plus insulin as set forth above. Groups 2 and 3 received simvastatin at a dose of 2 mg/kg/day or 5 mg/kg/day, respectively, along with insulin as set forth above. Group 4 received no treatment with either simvastatin or insulin. Blood glucose (BG) was measured in each animal approximately once a week, unless the glucose level of an animal began to fluctuate, at which time glucose level were measured every other day. This study lasted approximately four months. The last column of Table 1 is a list of measurements of glucose levels in all animals treated with simvastatin.
compound,measurement,setting,value
CC(C)c1c(C(=O)Nc2ccccc2)c(-c2ccccc2)c(-c2ccc(F)cc2)n1CC[C@@H](O)C[C@@H](O)CC(=O)O [atorvastatin calcium],mean BG vs control Group 1,"NOD mice [1]; Group 2, 5 mg/kg body weight daily oral, day 59-109 after weaning",lower
same,mean BG vs control Group 1,"NOD mice [1]; Group 3, 10 mg/kg body weight daily oral, day 59-109 after weaning",lower
same,expression of iNOS and TNF-α protein in pancreas,iNOS and TNF-α protein,increased expression of iNOS and TNF-α protein in saline-treated diabetic mice compared with atorvastatin calcium-treated mice
same,C-peptide,"[2]; 10 mg/day two weeks then 20 mg/day, six months, FIG. 14",marked increase in C-peptide
same,rise of C-peptide levels,"[2]; 20 mg/day, after 50 days of treatment",39.25%
same,C-peptide level,"[2]; 20 mg/day, after 50 days of treatment, initial 35.8 units",49.85 units
same,increase of insulin over the original amount of C-peptide,"[2]; 20 mg/day, over a period of 24 months, FIG. 15",240%
same,net increase of the amount of insulin vs expected,[2]; expected […]±7% of starting insulin within 12 months,600%
same,effect on preventing diabetes,[3],no effect on preventing diabetes
same,entry of inflammatory cells into pancreatic tissue,[4],inflammatory cells are not entering pancreatic tissue
same,immunostaining for ED1 and GR1 marker proteins in pancreas,[4]; vs intense staining in saline-treated mice,No immunostaining was observed
same,"mRNA expression of iNOS, TNF-α, and IFN-γ in pancreas",[5],elevated in saline-treated mice
same,mean BGs,"NOD mice [6]; 10 mg/kg daily oral, s.e.=15, n=277, p<0.001 vs saline 219",182.5
same,NOD mice without diabetes compared to saline,NOD mice [6],effective
same,protection from development of auto-immune diabetes,"NOD mice [6]; NOD mice, 5 or 10 mg/kg daily",partially protects
same,number of surviving disease-free animals vs control group,"NOD mice [6]; after 104 days of treatment, 5 or 10 mg/kg daily, FIG. 1",greater
same,number of animals that developed diabetes,"NOD mice [6]; during treatment, FIG. 1",reduction in the number of animals that developed diabetes
TRX4: anti-CD3 monoclonal antibody with orphan drug status,adverse effect associated with therapy,new-onset T1DM patients; six-day intravenous infusion,moderate “flu-like” syndrome
"NC(=O)c1ncn([C@@H]2O[C@H](CO)[C@@H](O)[C@H]2O)c1N [AICAR, 5-aminoimidazole-4-carboxamide ribonucleoside]",mean BG vs control Group 1,"NOD mice [1]; Group 4, 0.5 mg/gm body weight daily oral, p=0.025 by log-rank test",lower
same,entry of inflammatory cells into pancreatic tissue,[4],inflammatory cells are not entering pancreatic tissue
same,"mRNA expression of iNOS, TNF-α, and IFN-γ in pancreas",[5],elevated in saline-treated mice
same,NOD mice without diabetes compared to saline,NOD mice [6],significantly different
"hOKT3y1(ala-ala): modified, nonmitogenic, humanized form of the anti-CD3 monoclonal antibody",patients who maintained the same or improved endogenous insulin secretion,"new-onset T1DM patients; one year after initial 14-day course, 25% in the control group, Herold et al. 2002",75%
CCC(C)(C)C(=O)O[C@H]1C[C@@H](C)C=C2C=C[C@H](C)[C@H](CC[C@@H]3C[C@@H](O)CC(=O)O3)[C@H]21 [simvastatin],average blood glucose level,"NOD mice [7]; Group 2, simvastatin 2 mg/kg/day plus insulin, 36 determinations, p=0.05 vs saline plus insulin",143.6 ± 26.5 mg/dL
same,average blood glucose level,"NOD mice [7]; Group 2, simvastatin 2 mg/kg/day plus insulin, 36 determinations, p=0.05 vs saline plus insulin, listed as Simv.",143.6 mg/dL
same,average blood glucose level,"NOD mice [7]; Group 3, simvastatin 5 mg/kg/day plus insulin, 28 determinations, p<0.02 vs saline plus insulin",134.5 ± 15.7 mg/dL
same,average blood glucose level,"NOD mice [7]; Group 3, simvastatin 5 mg/kg/day plus insulin, 28 determinations, p<0.02 vs saline plus insulin, listed as Simv.",134.5 mg/dL
same,average blood glucose level,"NOD mice [7]; Simvastatin Combined, 64 determinations",139.7 mg/dL and 139.6563 mg/dL
